How the values were obtained:
trypsin [1] = molecular target: T1, trypsin (Sus scrofa, UniProt P00761); test: Apparent first order hydrolysis of extended SIS peptides (kobs, half-life, time to 75% and 95% hydrolyzed); type: in vitro ADME; design: purchased Promega V5111; details: for Observed rate constant (slope of linear regression of Ln(A,t/A,0) over time): trypsin digestion time course, direct-MRM
Method: By plotting the natural log as a function of time, or ln(At/A0)∼t, with At and A0 reported as the average peak area of hE from process triplicates at time t and time zero, respectively, a linear fit was calculated and kobs was reported as the slope of the fit (supplemental Table S9). […] Hydrolysis or disappearance of extended SIS peptides across both assays were categorized as fast, medium, slow, or pre-digested by Lys-C (not included in plot) by rate constants calculated using apparent first order kinetics. […] MRM, multiple reaction monitoring; SIS, stable isotope-labeled standard.

trypsin [2] = molecular target: T1, trypsin; test: hE/hT QC metric of proteolytic digestion (pass/marginal/fail); design: purchased Promega V5111; details: QC panel SIS pairs, 0 to 21 h, three replicates, versus 16-h control digestion
From the text: We next compared the utility of the peak area of hT and the ratio of hE/hT as a QC metric to monitor trypsin digestion efficiency. Measurements from the triplicate control digestion samples were used to define the acceptability criteria for the QC metric. A QC pass was defined as an hT value or hE/hT ratio within 2 SD of the median. A marginal QC was defined as a value that was less than three SD but more than two SD greater than the median. Finally, a QC failure was defined as a value that was three SDs greater than the median. We then tested the ability of the QC metric, as defined by either the hE/hT ratio or hT alone, to detect a loss of assay sensitivity, defined as the endogenous peak area in the stressed condition as a fraction of the control. There were 23 targets (15 for the direct-MRM assay, 8 for the immuno-MRM assay) that had endogenous measurements above the LLOQ in the control digestions and also had extended peptides that were not categorized as ‘pre-digested’.
Finally, to ensure the hE/hT QC metric was not subject to day-to-day variability, we excluded any SIS pairs that failed QC across our replicate, 16-h control digestions (one in the stressor experiment and one in the time course experiment). […]

[3] = fit with R2 > 0.80, min 3-4 time points
[4] = fit with R2 > 0.80, time points chosen to maximize R2 (minimum 4 points)

T1 sequence (P00761 9-231): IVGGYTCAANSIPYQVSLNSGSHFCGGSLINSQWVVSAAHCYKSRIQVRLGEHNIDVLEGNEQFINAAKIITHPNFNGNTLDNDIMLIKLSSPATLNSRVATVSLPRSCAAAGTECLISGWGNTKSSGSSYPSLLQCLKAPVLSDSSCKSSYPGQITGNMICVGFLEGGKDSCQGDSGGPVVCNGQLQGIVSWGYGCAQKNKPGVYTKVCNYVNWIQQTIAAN

Row | Substance | Observed rate constant (slope of linear regression of Ln(A,t/A,0) over time) (trypsin [1]; [3]) | Observed rate constant (slope of linear regression of Ln(A,t/A,0) over time) (trypsin [1]; [4]) | also measured
1 | AATC[+57]SKYTELPYGREDVLKE |  |  | Half-life of extended SIS peptide (trypsin [1]; direct-MRM trypsin digestion time course, from observed rate constant): 31.34 min
2 | DEVIKEVQEFYKDTYNK [CD9_P21926_1751] | -0.0217 min⁻¹ |  | 
3 | DSFRFGAPPHAGGGIGLERVTML [DARS_P14868_1752] | -0.0308 min⁻¹ |  | 
4 | DTKSDIIFFQRSVP [IL18_Q14116_1752] | -0.1677 min⁻¹ |  | 
5 | EEMEKVLAGETLSVNDPPDVLDRQK [ILF3_Q12906_GO] | -0.0481 min⁻¹ |  | 
6 | GEEDNSLSVR[+10] |  |  | hE/hT QC result in trypsin digestion time course (trypsin [2]): inconsistent QC results across the three replicates prior to the last time point
7 | IERTFHVETPEEREEW [AKT1_P31749_1751] |  | -0.0388 min⁻¹ | 
8 | IQVGRNIIHGSDSVESAEKEIGLWF [NME1_P15531_1753] |  | -0.0813 min⁻¹ | 
9 | KHRTGDEITYQC[+57]RNGF [CFH_P08603_1752] |  | -0.0473 min⁻¹ | 
10 | YTELPYGR[+10] |  |  | hE/hT QC result in trypsin digestion time course (trypsin [2]): pass QC, then fail (or marginally pass) the QC at the latest time point
